“Also recorded” adds a separate entry of the source. Read-outs that look alike come from different tables or passages of the source.
Legend:
[1] = set-up: method as in earlier work; details: ref 30-34 (Table 1), Supplementary refs 1-5, cited from earlier work
[2] = system: H9 human embryonic stem cells; assay: Cytotoxicity assay (MTS) in H9 cells; type: cell-based; details: for IC25H9: 25% inhibitory concentration, H9 cells, 3 days, MTS viability; for Cytotoxicity of tested concentration to hPSCs: Thalidomide 800 μM, Penicillin G 200 μg/ml
Method: (§1) The dose-dependent effect of each compound on the mesoendoderm pattern formation was determined by dosing at four test conditions: zero, low, medium and high drug concentrations (Fig. 3i). The cytotoxicity of each compound was evaluated in order to find the appropriate range of testing concentrations. […] The results would represent specific cytotoxicity to embryonic and adult cells respectively. Based on the cytotoxicity data, three drug concentrations (designated as low, medium and high) were selected such that the lowest concentration tested was not toxic to both H9 cells and aHDFs, and the highest concentration should not be cytotoxic to aHDFs. The tested concentration was considered as not cytotoxic if it was less than the drug’s 25% inhibitory concentration (IC25) to the tested cell line[25].
(§2) The cytotoxicity test was done in 96-well tissue culture plates with 100 μl of medium with or without the drug. For each drug, 8 concentrations with 5-fold dilution were tested together with the vehicle controls. For H9 cells, the plates were coated with Matrigel^TM before cell seeding. 10,000 hES cells or 1,000 aHDF cells were plated into each well and cultured for 3 days in the test solution with half change of the medium with or without the drug every day. On day 3, cell viability was measured using CellTiter 96® AQueous One Solution Cell Proliferation Assay (MTS, G3580, Promega). […] IC25 values were acquired from either logistic regression using OriginPro 9 or direct reading from the cytotoxicity curve.

[3] = human plasma, therapeutic dosing, cited from earlier work
[4] = system: mouse embryonic stem cells (mESCs); details: disruption of beating cardiomyocyte formation from mESCs; cited from earlier work
[5] = system: micropatterned human pluripotent stem cell (μP-hPSC) colonies; assay: μP-hPSC model-based quantitative morphometric assay (disruption of annular mesoendoderm pattern); type: cell-based; details: for DC value compared with known Cmax: DC in μP-hPSC model vs Cmax in human plasma; for Does DC < IC25H9?: comparison of DC with IC25 to H9 cells; for Morphologic cluster readouts across four test groups (one-way ANOVA, post-hoc): control, low, medium, high concentrations, day 3; for DC (disruption concentration): lowest concentration which morphologically disrupts the mesoendoderm pattern vs non-treated control, 3-day mesoendoderm induction; for Teratogenicity classification in the μP-hPSC model: teratogenic if DC < IC25,H9
Method: as §1
A series of imaging processing and statistical analysis were developed to quantitatively measure the teratogenic effects of each drug (Fig. 3). After three days of culture in the mesoendoderm induction medium, immunofluorescence images of T were acquired (Fig. 3ii). We employed similar image quantification algorithms previously used for analyzing collagen deposition patterns in fibrotic tissues[26] to extract 19 morphological attributes that describe the annular mesoendoderm pattern (Fig. 3iii). […] A dose response plot was then generated for each morphologic cluster (Fig. 3iv). One-way analysis of variance (ANOVA) was performed to determine whether there were significant morphologic differences among test groups for each drug (Fig. 3v).
This concentration was defined as the disruption concentration (DC). If DC < IC25,H9, we can infer that the drug is teratogenic, where it affects embryonic development without being cytotoxic to embryonic cells.
The readouts of each morphologic cluster across the four test groups (i.e. control, low, medium, high) were plotted for each drug and one-way ANOVA was performed to determine whether there were significant differences across the test groups (Supplementary Fig. S7–S11).
The autoclaved PDMS stencil was first sealed onto a 60 mm petri dish (Nunc) using 200 μl of 70% ethanol. After drying in the cell culture hood, 450 μl Matrigel^TM in DMEM/F12 (11330032, GIBCO) was then added into each stencil and incubated for 5 hr at 37 °C before use. To obtain single cell suspension, the hPSC culture was treated with Accutase (SCR005, Merck Millipore) for about 10 min, and the cells were resuspended in mTeSR1 medium supplemented with 10 μM Y27632 (688000, Calbiochem, Merck Millipore). The cells were seeded onto the PDMS stencils at 100% confluence density of 4444 cells/mm^2 and allowed to attach for 1 hr. The stencil was then removed and the unpatterned substrate was passivated by backfilling with 0.5% Pluronic F-127 (P2443–1KG, Sigma-Aldrich) in DMEM/F12. After 10 min incubation, the μP-hPSC colonies were washed 3 times with DMEM/F12 and incubated at least for 3 hr in mTeSR^TM1 medium supplemented with 10 μM Y27632 before changed to mTeSR^TM1 medium alone. Differentiation was initiated 24 hr post seeding and lasted for 3 days before collecting the samples. For phase contrast live imaging, images were acquired every 20 min by BioStation CT (Nikon) using 10X objective. The imaging period started since the induction of differentiation and lasted for 3 days.
Morphological feature extraction from T fluorescence images was done in MATLAB Image Processing Toolbox (Mathworks). First, the outline of the μP-hPSC colony was identified by intensity difference compared with background and its centroid position was determined.

μP-hPSC colonies = assay: Quantitative RT-PCR of germ layer markers in drug-treated μP-hPSC colonies; type: cell-based, human; details: day 3; for Expression levels of MIXL1, GSC, NKX2.5, FOXA2, PAX6 and NESTIN / Expression level of mesoendoderm marker T compared to untreated control colonies / SOX17 expression level compared with untreated control colonies: Thalidomide 800 μM, Penicillin G 200 μg/ml; for Expression levels of MIXL1, GSC, NKX2.5, FOXA2, PAX6 and NESTIN: untreated control
Text: Therefore, we reasoned that measuring changes in the mesoendoderm pattern, which is an assimilation of multiple cellular processes, as an assay readout for teratogenic potential, is sufficiently sensitive and may show better specificity as compared to the expression levels of a panel of molecular biomarkers for differentiation.
Total RNA was extracted from the samples on day 3 of the differentiation using the RNeasy® Plus Micro Kit (74034, QIAGEN) according to manufacturer’s protocol. Then cDNA was synthesized from the extracted RNA using High Capacity RNA-to-cDNA Kit (4387406, Applied Biosystems, Life Technologies). To analyze the gene expression levels of each sample, quantitative RT-PCR was performed using FastStart Universal SYBR Green Master (ROX) (04913914001, Roche) on the ABI 7500 Fast Real-Time PCR system (Applied Biosystems, Life Technologies) according to the manufacturer’s standard protocol. The relative quantitative expressions values of target genes were normalized to GAPDH and expressed relative to the levels of undifferentiated hPSCs using the ΔΔCT method. All primers used were commercially validated primers from GeneCopoeia^TM except for MIXL1, GSC, E-cadherin, N-cadherin, VIM, TWIST and SNAIL. The primer sequences/Catalogue numbers can be found in Supplementary Information (Supplementary Table S3).

[6] = system: adult human dermal fibroblasts (aHDFs); assay: Cytotoxicity assay (MTS) in adult human dermal fibroblasts; type: cell-based; details: Thalidomide 800 μM; Penicillin G 200 μg/ml
Method: as §1
as §2, with “10,000 hES cells or 1,000 aHDF cells were plated into each well and cultured for 3 days in the test solution with half change of the medium with or without the drug every day.” left out

DC value compared with known Cmax [5]	Does DC < IC25H9? [5]	DC (disruption concentration) [5]	SMILES	In vivo human data (teratogenicity) [1]	IC25H9 [2]	In mEST (teratogenicity classification) [4]	Morphologic cluster readouts across four test groups (one-way ANOVA, post-hoc) [5]	Teratogenicity classification in the μP-hPSC model [5]	Expression levels of MIXL1, GSC, NKX2.5, FOXA2, PAX6 and NESTIN (μP-hPSC colonies)	Expression level of mesoendoderm marker T compared to untreated control colonies (μP-hPSC colonies)	SOX17 expression level compared with untreated control colonies (μP-hPSC colonies)	Cytotoxicity of tested concentration to human adult fibroblasts [6]	Cytotoxicity of tested concentration to hPSCs [2]	further results
lower than or equal to	Yes	0.36 ng/mL	CC1=C(/C=C/C(C)=C/C=C/C(C)=C/C(=O)O)C(C)(C)CCC1 [RA, Retinoic acid]	Teratogenic[31]	>2 µg/mL	Teratogenic	significant dose-dependent morphologic disruptions of the mesoendoderm pattern	Teratogenic	–	–	–	–	–	In vivo human data (teratogenicity) ([1]; listed as Retinoic acid): Teratogenic; Cmax ([3]; ref Muindi et al. (1992)): 347 ng/mL
lower than or equal to	Yes	100 µM	CCCC(CCC)C(=O)O [VPA, Valproic acid]	Teratogenic	130 µM	–	significant dose-dependent morphologic disruptions of the mesoendoderm pattern	–	–	–	–	–	–	Cmax ([3]; ref Reed et al. (2006), read-out: Cmax): 574 µM
lower than or equal to	Yes	200000 ng/mL	CC(C)(S)[C@@H](N)C(=O)O [D-penicillamine]	Teratogenic[32]	278 µg/mL	non-terotogenic; also recorded: Non-teratogenic	significant dose-dependent morphologic disruptions of the mesoendoderm pattern	Teratogenic	–	–	–	–	–	In vivo human data (teratogenicity) ([1]; listed as D-Penicillamine): Teratogenic
much higher	much higher and No	–	CC1(C)S[C@@H]2[C@H](NC(=O)Cc3ccccc3)C(=O)N2[C@H]1C(=O)O [Penicillin G]	–	787 µg/mL	–	no significant differences among test groups in almost all morphologic clusters except CL6	Non-teratogenic	no significant differences	higher expression level	no significant difference	non-cytotoxic	non-cytotoxic	Mesoendoderm pattern position (CL6) in high concentration test group ([5]; 1,000 μg/ml vs zero dose control, post-hoc p = 0.001): significant inward mesoenoderm pattern position toward the colony centre

SMILES	DC value compared with known Cmax [5]	Does DC < IC25H9? [5]	DC (disruption concentration) [5]	In vivo human data (teratogenicity) [1]	IC25H9 [2]	In mEST (teratogenicity classification) [4]	Morphologic cluster readouts across four test groups (one-way ANOVA, post-hoc) [5]	Teratogenicity classification in the μP-hPSC model [5]	Expression levels of MIXL1, GSC, NKX2.5, FOXA2, PAX6 and NESTIN (μP-hPSC colonies)	Expression level of mesoendoderm marker T compared to untreated control colonies (μP-hPSC colonies)	SOX17 expression level compared with untreated control colonies (μP-hPSC colonies)	Cytotoxicity of tested concentration to human adult fibroblasts [6]	Cytotoxicity of tested concentration to hPSCs [2]	further results
O=C1CCC(N2C(=O)c3ccccc3C2=O)C(=O)N1 (centres unmarked) [Thalidomide]	–	Yes	30 µM	Teratogenic[30]	>1000 µM	cannot be detected	significant dose-dependent morphologic disruptions of the mesoendoderm pattern	Teratogenic	no significant differences	higher expression level	no significant difference	non-cytotoxic	non-cytotoxic	Expression level of definitive endoderm marker SOX17 compared with Penicillin G-treated colonies (μP-hPSC colonies; Thalidomide 800 μM vs Penicillin G 200 μg/ml): significantly lower; Cmax ([3]; ref Teo et al. (2004), read-out: Cmax): 10.9 µM; Collective cell migration trajectory (live imaging and kymograph) ([5]; Thalidomide 800 μM, Penicillin G 200 μg/ml, 3-day live imaging, vs untreated colonies): migrated much more towards the colony center; Mesoendoderm pattern morphology (T+ cells) after 3 days ([5]; Thalidomide 800 μM, Penicillin G 200 μg/ml, vs untreated colonies): much wider mesoendoderm pattern that was displaced towards the colony center

Source: PMC4428054, “A method for human teratogen detection by geometrically confined cell differentiation and migration” (Scientific Reports, 2015)
